Each structure is given as a SMILES string. Read-outs that look alike come from different tables or passages of the source.

In test [1] the test system is Corynebacterium glutamicum DSM5715. Particulars: Proline 0.5 g/l; 72 hours at 33° C., 150 rpm; NaCl 5 g/l.
Description: A culture medium containing 2.5 g/l NaCl, 10 g/l peptone and 10 g/l yeast extract was adjusted to pH 7.4 with sodium hydroxide and, after heat sterilisation, 40 ml of 50% glucose solution per liter was added thereto. 47 ml portions of the medium were inoculated with Corynebacterium glutamicum DSM5715 with a needle on an agar plate with brain-heart agar as nutrient medium incubated for 48 hours and were shaken at 150 rpm for 20 hours at 33° C. in an RC-1-TK incubator from the firm Infors AG (Bottmingen, Switzerland). The cells were then washed with sterile physiological saline. The cells were separated by centrifugation for 20 minutes at 4000 rpm in a Beckmann centrifuge J 6B.
For the main cultivation in shaking flasks, 40 g (NH4)2SO4, 0.5 g KH2PO4, 0.5 g K2HPO4, 0.25 g MgSO4.7H2O and 0.3 g L-leucine were weighed in a 1 l beaker and 750 ml distilled water was added thereto. […]
The cultivation took place over 72 hours at 33° C. and 150 rpm in an RC-1-TK incubator from the firm Infors AG (Bottmingen, Switzerland). Subsequent to this, the optical density (OD) (photometer LP2W from the firm Dr. Lange, Berlin, Germany) and the concentration of L-amino acid formed in the culture suspension were determined. Amino acids were analysed by ion-exchange chromatography and post-column reaction with ninhydrin detection, using an amino acid analyser from the firm Eppendorf BioTronik (Hamburg, Germany).
Test [2] concerns Brevibacterium flavum DSM5399. The note with it: 72 hours at 30° C., 300 rpm. As for the experimental part: A culture medium containing 100 g/l saccharose, 12 g/l (NH4)2SO4, 100 ml/l soya flour hydrolysate, 0.5 g/l K2HPO4, 0.5 g/l KH2PO4, 0.25 g/l MgSO4.7H2O, 5.0 g/l NaCl and 1 ml of a solution of trace salts was adjusted to pH 7.0 and autoclaved. The solution of trace salts consisted of 1.0 g FeSO4.7H2O, 1.0 g MnSO4.H2O, 0.1 g ZnSO4.7H2O, 0.02 g CuSO4 and 0.002 g NiCl2.6H2O, which was made up to 100 ml with demineralised water and a few drops of a 1N HCl solution.
1 ml each of a 0.2 mg/l biotin and thiamine stock solution, which had been sterilised by filtration, were added to the culture medium. 10.0 g/l CaCO3 was sterilised together with the shaking flasks. In the culture medium, the proline concentration resulting from the introduction of soya flour hydrolysate was 0.34 g/l. The specified concentration of proline, obtained from a proline stock solution, was added to the medium after having been sterilised by filtration.
An agar plate with brain-heart agar as nutrient medium, which had been incubated for 72 hours with DSM5399, was suspended in 10 ml of sterile physiological saline. 10 ml portions of cultivation medium were placed in 100 ml Erlenmeyer shaking flasks and inoculated with 100 μl of the withdrawn cell suspension. The cultivation took place over 72 hours at 30° C. and 300 rpm. Subsequent to this, as specified in Example 1, the OD was determined at a wavelength of 660 nm and the threonine concentration was measured.

Test [3] concerns Brevibacterium flavum DSM5399. Particulars: Proline 0.1 g/l; 72 hours at 30° C., 300 rpm. As to the method: The solution of trace salts consisted of 1.0 g FeSO4.7H2O, 1.0 g MnSO4.H2O, 0.1 g ZnSO4.7H2O, 0.02 g CuSO4 and 0.002 g NiCl2.6H2O, which was made up to 100 ml with demineralised water and a few drops of a 1N HCl solution.
1 ml each of a 0.2 mg/l biotin and thiamine stock solution, which had been sterilised by filtration, were added to the culture medium. 10.0 g/l CaCO3 was sterilised together with the shaking flasks.
10 ml portions of cultivation medium were placed in 100 ml Erlenmeyer shaking flasks and inoculated with 100 μl of the withdrawn cell suspension. The cultivation took place over 72 hours at 30° C. and 300 rpm.

The test system of test [4] is cells in media with inhibiting osmotic stress. The note with it: cited from earlier work.
The mark [5] stands for this setting: Proline 0.34 g/l (resulting from soya flour hydrolysate, none added).

Take `O=C(O)[C@@H]1CCCN1` [Proline, L-proline]: in test [1], the Lysine came to 29.4 g/L and the “OD 535 nm” value was determined as 30.5. In test [2] (setting [5]), the “OD 660 nm” value was found to be 51.2 and the Threonine turned out to be 0.63 g/L. Moreover, in test [2] (Proline 0.66 g/l), the “OD 660 nm” value was determined as 52.6 and the Threonine was found to be 1.29 g/L. Further, in test [3], the L-isoleucine came to 0.36 g/L and the “OD 660 nm” value is given as 52.0.
In the case of `C[N+](C)(C)CC(=O)[O-]` [glycine betaine], in test [4], the “growth rate of the cells” value was “stimulates the growth rate” and the “production of L-lysine” value was “increase in the production of L-lysine”.

Values taken from patent US20010049128A1, “PROCESS FOR THE FERMENTATIVE PRODUCTION OF L-AMINO ACIDS” (priority 1998, published 2001).
